Reference: patent US11382884B2, “Method for reducing lung infection” (priority 2017, dated 2022)
Like-named read-outs stand apart in the source and are kept apart here.

Key:
[1] = test system: P. aeruginosa ATCC27853; experiment: Time-kill assay, ceftazidime with or without buffered CaEDTA; assay type: cell-based, Pseudomonas aeruginosa; conditions: ceftazidime 128 ug/ml, buffered CaEDTA 20 mM
Procedure: This is likely a result of increased antibiotic killing. Challenge microorganisms were grown on solid agar and suspended in 0.9% Sodium Chloride (SCl) to create a challenge suspension. A 0.1 mL aliquot of the challenge suspension containing approximately 1×10^8 colony forming units was then inoculated into 10 mL Cation-Adjusted Mueller Hinton Broth (CaMHB) with the appropriate antibiotic or antibiotic with chelator, as indicated, and mixed thoroughly. The challenge suspension/antibiotic mixtures were then incubated at 35 degrees C. for the exposure time. At each timepoint, 0.1 mL aliquots were removed and placed into 9.9 mL of Butterfield's Phosphate Buffer with product neutralizers, mixed thoroughly by vortexing, and plated using the appropriate agar. Recovered colonies were enumerated using a hand-tally counter.

[2] = test system: P. aeruginosa planktonic cells and biofilms; experiment: Microplate test of antibiotics of different classes with buffered CaEDTA; assay type: cell-based, Pseudomonas aeruginosa; conditions: growth method 2; FIGS. 7-12
Procedure: (§1) Growth method 2: Overnight cultures of the relevant strain of P. aeruginosa were grown in M63 medium supplemented with glucose (0.5% w/v), casamino acids (0.2% w/v) and MgSO4 (1 mM) at 35° C. with shaking. 96-well microplates containing M63 with serial dilutions of antibiotics and adjuvants as indicated were inoculated to OD600 nm 0.01 in a final volume of 200 μl. Plates were incubated at 35° C. overnight without shaking.
(§2) Planktonic growth was monitored by OD reading or plate counting. Biofilms were quantified by staining with 40 μl of crystal violet stain (1% w/v in water) for 10 min at room temperature, washing twice with 250 μl of water, dissolving the stain in 250 μl of 50% ethanol and reading optical density at 595 nm.
Cells were grown according to method 2 and challenged with buffered CaEDTA and a series of clinically relevant antibiotics of different classes with different modes of action.

[3] = test system: P. aeruginosa WACC91 planktonic cells; experiment: Checkerboard, tobramycin with other chelators; assay type: cell-based, Pseudomonas aeruginosa; conditions: for effect on the MIC of tobramycin: concentration-dependent, FIGS. 13 and 14
Procedure: as §1
Cells were grown according to method 2 and challenged with different concentrations of tobramycin.

[4] = test system: P. aeruginosa; conditions: ten CF children, nebulised sodium EDTA and oral tetracycline for three months; cited from earlier work
[5] = test system: Burkholderia cepacia planktonic cells; experiment: Checkerboard, antibiotics with buffered CaEDTA; assay type: cell-based; conditions: FIGS. 15 and 16
Procedure: (§3) Checkerboard assays of other species were carried out using growth method 1, apart from the following variations. Burkholderia cepacia was incubated at 30° C., and other bacteria were incubated at 37° C. Streptococcus pyogenes and Streptococcus pneumoniae were grown in Todd Hewitt Broth, and Staphylococcus aureus was grown in Veal Infusion Broth.

[6] = test system: P. aeruginosa WACC91 biofilms; experiment: Checkerboard, biofilm growth (crystal violet staining), tobramycin with CaEDTA or buffered CaEDTA; assay type: cell-based, Pseudomonas aeruginosa
Procedure: (§4) Growth method 1: Cells were grown in M9 medium supplemented with arginine and MgSO4, in polystyrene 96-well plates (Nunc) by seeding each well with […] of an overnight culture of P. aeruginosa strain WACC 91 and incubating at 37° C. for 24 hours.
(§5) Anaerobic cultures were incubated in a closed chamber with anaerobic sachets to remove oxygen.
as §2
(§6) Cells of P. aeruginosa WACC91 were grown according to method 1 and tested in a checkerboard assay against tobramycin and CaEDTA in varying concentrations.

[7] = test system: P. aeruginosa clinical strain biofilms; experiment: Biofilms in hanging drops of CF mucus treated with nebulised tobramycin and/or aerosolised EDTA particles; assay type: cell-based, Pseudomonas aeruginosa; conditions: for biofilm viability (BacLight LIVE/DEAD, confocal microscopy): 5 min treatment, nebulised tobramycin 20 mg/ml and/or aerosolised EDTA particles 10 mg/ml, 16 hours incubation, FIG. 24A
Procedure: Biofilms were grown in a realistic in vitro model using suspended drops of cystic fibrosis mucus harvested from epithelial cell lines (Haley, C. L., Colmer-Hamood, J. A., and Hamood, A. N. (2012). Characterization of biofilm-like structures formed by Pseudomonas aeruginosa in a synthetic mucus medium. BMC Microbiol 12, 181.).
Drops of mucus (5 μl) were suspended from an inverted IBIDI cover slip and inoculated with 10^3 cfu, then incubated in a humidified environment at 35° C. for 72 hours to allow biofilm development. […] Controls were treated with a 50/50 solution of nebulised 0.9% saline/water. Following treatment, the drops were incubated for 16 hours, then stained with BacLight LIVE/DEAD (1 μl), and fixed in paraformaldehyde vapour for 30 min. Biofilms were visualised using confocal microscopy.

[8] = test system: P. aeruginosa clinical strain; experiment: MIC of tobramycin for the clinical strain; assay type: cell-based; conditions: Pseudomonas aeruginosa; P. aeruginosa clinical strain used in the CF mucus model
[9] = test system: Staphylococcus aureus MRSA; experiment: Antibiotics with buffered CaEDTA against MRSA; assay type: cell-based; conditions: FIG. 19 (vancomycin), FIG. 21 (ciprofloxacin)
Procedure: as §3

[10] = test system: S. aureus MSSA; experiment: Ciprofloxacin with buffered CaEDTA against MSSA; assay type: cell-based, Staphylococcus aureus; conditions: FIG. 20
Procedure: as §3

[11] = test system: P. aeruginosa biofilms
Procedure: Biofilm disruption or killing was monitored by growing cells as described and removing planktonic cells by pipetting. The attached biofilm was washed carefully with sterile PBS three times, and fresh medium containing the treatment (tobramycin alone or together with CaNa2EDTA in solution, tris-buffered solution, or as dry powder particles) was added. Plates were incubated for a further 24 hours and metabolic activity was measured. Biofilms were washed as described above, then fresh medium containing 0.02% w/v resazurin was added. Plates were shaken briefly to mix, then incubated at 37° C. for 2 hours. Metabolic activity, as reflected by the conversion of resazurin to resafurin, was assessed by measuring the increase in fluorescence at an excitation wavelength of 530 nm with detection at 590 nm.

[12] = single dose of 75 mg CaEDTA; after 30 minutes; FIG. 28
Procedure: Vials were then centrifuged at 100 g for 5 min to sediment precipitated proteins and 754 μL of the methanol extract taken for derivatisation. […] Derivatised extract (1 μl) was injected into a Waters microflow HPLC equipped with a triple quad mass […] detector.

[13] = test system: P. aeruginosa WACC91; conditions: for interaction with tobramycin, planktonic growth (OD600 nm): checkerboard
Procedure: as §4, §5, §2, §6

[14] = 300 mg/day for two weeks (75 mg QID); FIG. 26
Procedure: Subjects were then discharged and treatment was continued twice a day for four weeks. Patients were monitored for a further four weeks, bringing the total study time to 10 weeks. At each study visit, lung function was measured by spirometry. Data was recorded as the best of three attempts, and results were expressed as % predicted.

[15] = test system: Klebsiella pneumoniae planktonic cells and biofilms; experiment: Checkerboard, colistin with buffered CaEDTA; assay type: cell-based
Procedure: as §3

[16] = 4 ug/ml tobramycin, 6.25 mM CaEDTA, aerobic and anaerobic, FIG. 5

CC(C)(O/N=C(\C(=O)N[C@@H]1C(=O)N2C(C(=O)[O-])=C(C[n+]3ccccc3)CS[C@H]12)c1csc(N)n1)C(=O)O [ceftazidime]
rate of killing in the presence of buffered CaEDTA [1]: much more rapid

CC[C@H]1OC(=O)[C@H](C)[C@@H](O[C@H]2C[C@@](C)(OC)[C@@H](O)[C@H](C)O2)[C@H](C)[C@@H](O[C@@H]2O[C@H](C)C[C@H](N(C)C)[C@H]2O)[C@](C)(O)C[C@@H](C)C(=O)[C@H](C)[C@@H](O)[C@]1(C)O [erythromycin]
sensitivity of P. aeruginosa to the antibiotic in the presence of buffered CaEDTA [2]: increases the sensitivity

O=C(O)CN(CCOCCOCCN(CC(=O)O)CC(=O)O)CC(=O)O [EGTA, ethylene glycol tetraacetic acid]
effect on the MIC of tobramycin [3]: reduce the MIC

COc1cccc(OC)c1C(=O)N[C@@H]1C(=O)N2[C@@H]1SC(C)(C)[C@@H]2C(=O)O [methicillin]
sensitivity of P. aeruginosa to the antibiotic in the presence of buffered CaEDTA [2]: increases the sensitivity

O=C(O)CN(CCN(CC(=O)O)CC(=O)O)CCN(CC(=O)O)CC(=O)O [DTPA, diethylenetriaminepentaacetic acid]
interaction with tobramycin ([3]; FIG. 14): synergy | effect on the MIC of tobramycin [3]: reduce the MIC

sodium EDTA
lung function or infection status [4]: no change in lung function or infection status

NC[C@H]1O[C@H](O[C@H]2[C@H](O)[C@@H](O[C@H]3O[C@H](CO)[C@@H](O)[C@H](N)[C@H]3O)[C@H](N)C[C@@H]2N)[C@H](N)C[C@@H]1O [tobramycin]
MIC of B. cepacia in the presence of buffered CaEDTA [5]: lowered | biofilm formation at sub-MIC concentration ([6]; tobramycin alone, 4 ug/ml, FIG. 5): increase biofilm formation | biofilm viability (BacLight LIVE/DEAD, confocal microscopy) [7]: little effect on viability | MIC [8]: > 256 µg/mL

CC1(C)S[C@@H]2[C@H](NC(=O)C(C(=O)O)c3ccccc3)C(=O)N2[C@H]1C(=O)O (stereo partly shown) [carbenicillin]
sensitivity of P. aeruginosa to the antibiotic in the presence of buffered CaEDTA [2]: increases the sensitivity

CN[C@H](CC(C)C)C(=O)N[C@H]1C(=O)N[C@@H](CC(N)=O)C(=O)N[C@H]2C(=O)N[C@H]3C(=O)N[C@H](C(=O)N[C@H](C(=O)O)c4cc(O)cc(O)c4-c4cc3ccc4O)[C@H](O)c3ccc(c(Cl)c3)Oc3cc2cc(c3O[C@@H]2O[C@H](CO)[C@@H](O)[C@H](O)[C@H]2O[C@H]2C[C@](C)(N)[C@H](O)[C@H](C)O2)Oc2ccc(cc2Cl)[C@H]1O [vancomycin]
MIC in the presence of buffered CaEDTA [9]: reduced MIC values

O=C(O)c1cn(C2CC2)c2cc(N3CCNCC3)c(F)cc2c1=O [ciprofloxacin]
MIC of B. cepacia in the presence of buffered CaEDTA [5]: lowered | MIC in the presence of buffered CaEDTA [10]: reduced MIC values | MIC in the presence of buffered CaEDTA [9]: reduced MIC values

O=C([O-])CN(CCN(CC(=O)[O-])CC(=O)[O-])CC(=O)[O-].[Ca+2].[Na+].[Na+] [CaEDTA]
effect on efficacy of tobramycin against existing biofilms (metabolic activity) ([11]; FIG. 6): increases the efficacy | dependence of the synergistic effect on mode of delivery ([11]; solution or dry powder, FIG. 6B): does not depend on the mode of delivery | interaction with tobramycin, metabolism of biofilms ([11]; submicron particles of CaEDTA, aerosolised, 96-well plates, FIG. 6): synergistic effect | effect on killing of biofilms by tobramycin ([11]; tobramycin concentrations<1 mg/ml, FIG. 6A): substantially enhances killing | EDTA inside mucus plugs [12]: up to 1.34 mM | biofilm growth when CaEDTA is added to tobramycin [6, 16]: reduced | interaction with tobramycin, biofilm growth (CV staining) ([6]; aerobic conditions, checkerboard, FIG. 2): synergistic effect | effect on the concentration of tobramycin required to block biofilm formation ([6]; aerobic, FIG. 2): lowers the concentration of tobramycin required | interaction with tobramycin, biofilms ([6]; anaerobic conditions, checkerboard, FIG. 4): synergistic effect | biofilm viability (BacLight LIVE/DEAD, confocal microscopy) [7]: some degree of killing | interaction with tobramycin on biofilms in CF mucus ([7]; submicron particles of CaEDTA, tobramycin 325 μg/ml final in droplets, FIG. 24): act synergistically | planktonic growth when CaEDTA is added to tobramycin [13, 16]: reduced | interaction with tobramycin, planktonic growth (OD600 nm) ([13]; aerobic conditions, FIG. 1): synergistic effect | interaction with tobramycin, planktonic growth (OD600 nm) ([13]; anaerobic conditions, FIG. 3): synergistic effect | effect on the MIC of tobramycin ([13]; planktonic cells, aerobic conditions, FIG. 1): lowers the MIC | lowest effective concentration in vitro ([13]; with tobramycin, FIGS. 1B and 2B): 0.078 mM | improvement in lung function (FEV1), average [14]: 16 % points

C[C@H]1[C@H](NC(=O)/C(=N\OC(C)(C)C(=O)O)c2csc(N)n2)C(=O)N1S(=O)(=O)O [aztreonam]
sensitivity of P. aeruginosa to the antibiotic in the presence of buffered CaEDTA [2]: increases the sensitivity

colistin
sensitivity of P. aeruginosa to the antibiotic in the presence of buffered CaEDTA [2]: increases the sensitivity | sensitivity of planktonic cells in the presence of buffered CaEDTA ([15]; FIG. 17A): sensitized | sensitivity of biofilms in the presence of buffered CaEDTA ([15]; FIG. 17B): sensitized
